In article PMC9403976, “Elucidating the path to Plasmodium prolyl-tRNA synthetase inhibitors that overcome halofuginone resistance” (Nature Communications, 2022):
“And” between values parts separate entries of the source, which are not always exact repeats. Equal entries are not always repeated. Where two headings read alike, the source gives them in different places.

Key:
HsProRS = HsProRS (Homo sapiens, UniProt P07814); details: ref Heacock et al.; cited from earlier work
HT-HsProRS [1] = molecular target: T1, HT-HsProRS (Homo sapiens, UniProt P07814); details: replicates 1-4
T1 sequence (P07814 996-1512): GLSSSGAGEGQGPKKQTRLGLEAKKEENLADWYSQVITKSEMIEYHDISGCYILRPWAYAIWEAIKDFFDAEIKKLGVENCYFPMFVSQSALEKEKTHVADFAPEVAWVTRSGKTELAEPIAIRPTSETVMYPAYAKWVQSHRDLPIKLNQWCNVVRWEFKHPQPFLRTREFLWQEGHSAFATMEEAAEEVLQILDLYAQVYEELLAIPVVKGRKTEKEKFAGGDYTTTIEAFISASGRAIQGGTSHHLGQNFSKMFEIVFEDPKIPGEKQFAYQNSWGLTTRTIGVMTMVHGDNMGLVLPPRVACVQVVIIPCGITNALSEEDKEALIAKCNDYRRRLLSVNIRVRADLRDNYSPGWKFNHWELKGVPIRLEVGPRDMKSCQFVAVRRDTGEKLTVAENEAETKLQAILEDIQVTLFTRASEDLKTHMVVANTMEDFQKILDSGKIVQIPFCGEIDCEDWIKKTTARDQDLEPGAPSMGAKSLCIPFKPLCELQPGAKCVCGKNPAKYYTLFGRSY
Description: (§1) A Multidrop Combi Reagent Dispenser (Thermo Fisher Scientific) was used to dispense 20 μL of 2× protein solution into each well. […] Plates were mixed on an Ika MTS 2/4 Digital Microtiter Shaker at 750 rpm for 2 min, centrifuged at 1000 × g at 25 °C for 1 min, and allowed to equilibrate for 2 h at room temperature before TR-FRET measurements were taken.
(§2) PRISM (V. 8.4.3–9.1.0, GraphPad) was used to perform non-linear regression analysis (log(inhibitor) vs. response–Variable slope (four parameters)), plot dose-response curves, and calculate IC50 values. The Cheng–Prusoff equation was used to convert IC50 to KD values (Eq. (4)):4 KD=IC50/1+[MAT379]/KD,MAT379

HT-HsProRS [2] = molecular target: T1, HT-HsProRS; assay: biochemical
Description: as §1, §2

HT-PfcProRS = HT-PfcProRS (Plasmodium falciparum, UniProt Q8I5R7); assay: biochemical
Description: as §1, §2

P. falciparum Dd2-2D4 = assay: P. falciparum asexual blood stage (ABS) growth assay, SYBR Green, 72 h, wild-type parasites; format: cell-based, Plasmodium falciparum; details: Plasmodium falciparum; cell line Dd2-2D4 (parent); read-out: EC50 [nM] mean
Description: Parasites were maintained under standard culture conditions as described previously[56],[57]. […] The P. falciparum Dd2 cell lines used in this study (Dd2-2D4, halofuginone-induced, and HFGR-I) have previously undergone whole genome sequencing in our labs.
This assay was performed as previously described[8]. In short, P. falciparum erythrocytic-stage parasites at 1% parasitemia and 1% hematocrit in RPMI + 0.5% Albumax were seeded at 40 μL/well in 384-well plates with test compounds in triplicate, dose-response format with 10 μM dihydroartemisinin as a kill-control and blank (no compound) wells as a growth-control. […] After 72 h, growth was quantified by measuring fluorescence (Molecular Devices SpectraMax iD5) following SYBR Green 1 staining. Data were analyzed in Excel and plotted in PRISM (V. 8.4.3–9.1.0, GraphPad).

[3] = system: P. falciparum Dd2-2D4 NCP26 selections S1-3; assay: ABS growth assay on bulk populations and clones from NCP26 resistance selections S1-3; format: cell-based, Plasmodium falciparum; details: Plasmodium falciparum

Sequence of HT-PfcProRS (Q8I5R7 249-746): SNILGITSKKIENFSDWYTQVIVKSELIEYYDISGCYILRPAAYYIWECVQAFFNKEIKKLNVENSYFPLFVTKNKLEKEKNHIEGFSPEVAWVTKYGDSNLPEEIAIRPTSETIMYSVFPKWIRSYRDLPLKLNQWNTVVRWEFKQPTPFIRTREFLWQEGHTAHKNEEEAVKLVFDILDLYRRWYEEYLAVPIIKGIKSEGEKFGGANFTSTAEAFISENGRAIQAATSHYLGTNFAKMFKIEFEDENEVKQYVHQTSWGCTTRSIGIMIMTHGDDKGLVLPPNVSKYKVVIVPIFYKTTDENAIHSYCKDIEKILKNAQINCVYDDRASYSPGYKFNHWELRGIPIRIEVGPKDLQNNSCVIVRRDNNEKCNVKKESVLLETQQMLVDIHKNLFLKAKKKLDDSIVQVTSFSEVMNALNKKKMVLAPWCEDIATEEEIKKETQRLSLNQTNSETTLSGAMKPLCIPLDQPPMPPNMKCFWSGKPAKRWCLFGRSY

Nc1ncnc2c1ncn2[C@@H]1O[C@H](COP(=O)(O)OP(=O)(O)OP(=O)(O)O)[C@@H](O)[C@H]1O [ATP]
Km (HsProRS): 500 µM | ATP - […] HT-HsProRS - 1000nM MAT379 (HT-HsProRS [1]; Log[Substrate] (M) -1.301): 1.53E-02 and -2.24E-04 and 3.02E-02 and 2.38E-02 | ATP - […] HT-HsProRS - 1000nM MAT379 (HT-HsProRS [1]; Log[Substrate] (M) -1.602): 2.53E-02 and 6.72E-02 and 4.62E-03 and 4.29E-02 | ATP - […] HT-HsProRS - 1000nM MAT379 (HT-HsProRS [1]; Log[Substrate] (M) -1.903): 3.94E-02 and 5.54E-02 and 1.78E-02 and 4.02E-02 | ATP - […] HT-HsProRS - 1000nM MAT379 (HT-HsProRS [1]; Log[Substrate] (M) -2.204): -1.77E-02 and 2.78E-02 and -2.71E-02 | ATP - […] HT-HsProRS - 1000nM MAT379 (HT-HsProRS [1]; Log[Substrate] (M) -2.505): 4.93E-03 and 1.38E-02 and 2.29E-03 and -1.57E-02 | ATP - […] HT-HsProRS - 1000nM MAT379 (HT-HsProRS [1]; Log[Substrate] (M) -2.806): 3.39E-02 and 3.33E-02 and 1.97E-02 and 4.46E-02 | ATP - […] HT-HsProRS - 1000nM MAT379 (HT-HsProRS [1]; Log[Substrate] (M) -3.107): 5.86E-02 and 6.01E-02 and 5.77E-02 and 4.19E-02 | ATP - […] HT-HsProRS - 1000nM MAT379 (HT-HsProRS [1]; Log[Substrate] (M) -3.408): 1.19E-01 and 8.31E-02 and 6.99E-02 | ATP - […] HT-HsProRS - 1000nM MAT379 (HT-HsProRS [1]; Log[Substrate] (M) -3.709): 1.24E-01 and 1.53E-01 and 1.47E-01 and 1.40E-01 | ATP - […] HT-HsProRS - 1000nM MAT379 (HT-HsProRS [1]; Log[Substrate] (M) -4.010): 2.51E-01 and 2.58E-01 and 2.34E-01 and 2.36E-01 | ATP - […] HT-HsProRS - 1000nM MAT379 (HT-HsProRS [1]; Log[Substrate] (M) -4.311): 3.56E-01 and 3.10E-01 and 3.57E-01 and 3.37E-01 | ATP - […] HT-HsProRS - 1000nM MAT379 (HT-HsProRS [1]; Log[Substrate] (M) -4.612): 2.50E-01 and 3.45E-01 and 2.88E-01 and 2.85E-01 | ATP - […] HT-HsProRS - 1000nM MAT379 (HT-HsProRS [1]; Log[Substrate] (M) -4.913): 3.70E-01 and 3.71E-01 and 3.06E-01 and 3.78E-01 | ATP - […] HT-HsProRS - 1000nM MAT379 (HT-HsProRS [1]; Log[Substrate] (M) -5.214): 3.77E-01 and 4.09E-01 and 3.64E-01 and 3.70E-01 | ATP - […] HT-HsProRS - 1000nM MAT379 (HT-HsProRS [1]; Log[Substrate] (M) -5.515): 4.23E-01 and 4.03E-01 and 4.00E-01 and 4.38E-01 | ATP - […] HT-HsProRS - 1000nM MAT379 (HT-HsProRS [1]; Log[Substrate] (M) -5.816): 4.03E-01 and 4.66E-01 and 3.88E-01 and 4.49E-01 | ATP - […] HT-HsProRS - 1000nM MAT379 (HT-HsProRS [1]; Log[Substrate] (M) -6.118): 4.47E-01 and 4.50E-01 and 4.51E-01 and 4.46E-01 | ATP - […] HT-HsProRS - 1000nM MAT379 (HT-HsProRS [1]; Log[Substrate] (M) -6.419): 4.22E-01 and 4.52E-01 and 3.59E-01 and 4.01E-01 | Kd (HT-HsProRS [2]; HsProRS (KD [nM]) mean, substrates, substrate KD, (-)): 67100 nM | Kd (HT-HsProRS [2]; KD of substrate, […] HT-HsProRS, 1000 nM MAT379): 30600 nM | Kd (HT-PfcProRS): 892000 nM

C[C@H]1[C@@H](O)O[C@@H]2O[C@@]3(C)CC[C@H]4[C@H](C)CC[C@@H]1[C@@]24OO3 [DHA, dihydroartemisinin, reference compound]
EC50 (P. falciparum Dd2-2D4): 4.95 nM | EC50 ([3]; DD2, cell line S1 - Clone A8, read-out: EC50 [nM] mean): 3.4 nM | EC50 ([3]; DD2, cell line S1 - bulk population, read-out: EC50 [nM] mean): 4.5 nM | EC50 ([3]; DD2, cell line S2 - Clone A3, read-out: EC50 [nM] mean): 2 nM | EC50 ([3]; DD2, cell line S2 - Clone B9, read-out: EC50 [nM] mean): 10.1 nM | EC50 ([3]; DD2, cell line S2 - Clone C5, read-out: EC50 [nM] mean): 3.48 nM | EC50 ([3]; DD2, cell line S2 - bulk population, read-out: EC50 [nM] mean): 3.55 nM | EC50 ([3]; DD2, cell line S3 - Clone B3, read-out: EC50 [nM] mean): 3.51 nM | EC50 ([3]; DD2, cell line S3 - Clone B7, read-out: EC50 [nM] mean): 3.12 nM | EC50 ([3]; DD2, cell line S3 - bulk population, read-out: EC50 [nM] mean): 3.44 nM | EC50 ([3]; DD2, read-out: EC50 [nM] mean, cell line S3 - Clone B2): 8.34 nM
